Laboratory results as given in patent EP0097633B1, “Determination of the sensitivity of virus to antiviral agents” (Wahren, Britta, priority 1982, dated 1984).
Read-outs that look alike come from different tables or passages of the source.

Tests used:
[1] = system: virus isolate from an eye IDU treated with without result; test: VSA on a virus isolate from an eye treated with IDU without result (Example 3); format: cell-based
Protocol: (§1) Sterile plastic plates comprising 24 wells, each having a culture surface of 2.5 cm^2 and containing about 5 x 10^5 HL-cells/well were inoculated with 0.1 ml of virus dilutions as above. Such of the above virus dilutions only containing a small amount of virus are first cultured for 3 days in HL-cells, on which virus replicates, after which the virus isolate from one cell passage is taken out, is diluted 1:30 and 0.1 ml of the dilutions is added to the plates as indicated above. The cells are then incubated at a temperature of 32-37°C, with addition of different antiviral agents, and without any addition of antiviral agent to obtain reference values. Each antiviral agent is added in a dilution series comprising six different concentrations (Cl-C6), some of which correspond to desired serum concentrations for the treatment of patients. In table 1 is indicated the antiviral agents and concentrations thereof used.
(§2) The supernatant is sucked off and in order to achieve cell disrupture 800 µl of distilled water are added to the cells on the plates. The plates are frozen at -20°C and after some time sufficient for formation of ice crystals (about 15 min) the plates are thawed to room temperature for measurement of virus antigen. If desired, the plates can be preserved in a frozen state for a long time before they are thawed in order to carry out the measurement of virus antigen. When the plates have thawed 200 µl of NaCI of 4.5% are added to the cells in order to obtain an isotonic solution.
(§3) The amount of virus antigen formed is thereafter determined as follows. Guinea pig anti-HSV-serum is diluted in 0.1-M sodium carbonate buffer. 0.1 ml of the serum dilution is filled per well in microplates (M 29 AR, Dynatech, Zug, Switzerland) which have been washed three times with NaCI-solution of 0.9% containing 0.05% of Tween® 20, after which the plates are incubated for 16 hours at room temperature. The plates can be preserved sealed with their contents at +4°C up to 2-3 months.
(§4) 0.1 ml of the cell material obtained above or a known virus antigen is filled into plates treated with antibody and is incubated for 4 hours at +4°C. After washing with the washing solution indicated above 0.1 ml of rabbit anti-HSV is added and the plates are incubated for 2 hours at +37°C. The plates are washed and 0.1 ml of conjugate is added, after which they are incubated for 2 hours at +37°C. The conjugate consists of pig anti-rabbit IgG conjugated with alkaline phosphatase (Orion Diagnostica, Helsinki, Finland) in a dilution of 1:100. Non-bonded conjugate is washed off before 100 pl of the substrate p-nitrophenyl phosphate (1 mg/ml, Sigma, St Louis, MO, USA) are added. For dilution of the substrate 1 M diethanol buffer, pH 9.8 containing 0.5 x 10-^3 M MgC12 is used and for dilution of antisera and conjugate phosphate buffer (PBS), pH 7.3-7.4 with 0.5% of Tween® 20, 0.5% of BSA (bovine serum albumin) and 0.02% of NaN3 is used. The reaction is stopped after 20-60 min with 0.025 ml of 5 M NaOH. The absorbance (A) is thereafter read at 405 nm with Titertek Multiskan® (Flow Laboratories, Irvine, Scotland).

[2] = system: HSV; test: Virus sensitivity assay (VSA): HSV patient material replicated in HL-cells with antiviral agent, cell disruption, virus antigen by ELISA sandwich technique (Example 1); format: cell-based, herpes simplex virus (HSV); conditions: for absorbance (A) at 405 nm: disrupted cells, culture of 1 to 3 days; for sensitivity of the investigated HSV to the antiviral agent: read from Fig. 1
Protocol: A material from a patient containing living HSV is mixed with a small amount of Eagle's tissue culture medium containing 2% of calf serum, 100 IE penicillin/ml and 100 […] of streptomycin/ml, after which the virus mixture is diluted 1:30 in this medium.
as §1
As a background control of virus replication taking place and for a direct typing of virus 2 cell containing wells/plate are inoculated with a mixture of 0.1 ml virus dilution and 0.05 ml of Brij-58 of 1%.
After a culture of 1 to 3 days the effect of the antiviral agents is then evaluated by measurement with ELISA sandwich technique as described below. However, the cells are treated in the following way before this measurement.
as §2
as §3, with “months. The optimal antibody concentration has been determined by antibody titration with the respective antigen and control antigen.” for “months.”
as §4, with “Scotland). […]” for “Scotland).”

[3] = system: HSV-1; test: VSA on HL-cells infected with HSV-1, virus antigen measured in supernatant and in cells disrupted with distilled water (Example 2); format: cell-based; conditions: for Absorbance values at 405 nm: 3 days
Protocol: as §1, §2
as §3, with “months. The optimal antibody concentration has been determined by antibody titration with the respective antigen and control antigen.” for “months.”
as §4, with “Scotland). Absorbance values then obtained at the concentrations C1―C6 of the antiviral agents from table 1 and at the concentration Co = O are indicated in the following table 2.” for “Scotland).”
HL-cells infected with HSV-1 were incubated in the same way as in example 1 in the presence of Ara-A and IDU in the concentrations indicated in table 1 for 3 days. Reference culture without addition of antiviral agent was also carried out. The virus antigen in the supernatant (---) and in cells disrupted with distilled water (-) was thereafter measured in the same way as in example 1, and the results are found in table 3 and Fig. 2.

[4] = cited from earlier work
[5] = C1: Ara-A 5, ACV 0.15, PFA 25, IDU 0.5 μM, C0 (no agent) 1.605
[6] = C2: Ara-A 10, ACV 0.31, PFA 50, IDU 1 μM, C0 1.605
[7] = C3: Ara-A 20, ACV 0.63, PFA 100, IDU 2 μM, C0 1.605
[8] = C4: Ara-A 40, ACV 1.25, PFA 200, IDU 4 μM, C0 1.605
[9] = C5: Ara-A 80, ACV 2.5, PFA 400, IDU 8 μM, C0 1.605
[10] = C6: Ara-A 160, ACV 5, PFA 800, IDU 16 μM, C0 1.605
[11] = C1: Ara-A 5, ACV 0.15, PFA 25, IDU 0.5 μM, C0 (no agent) 1.425
[12] = C2: Ara-A 10, ACV 0.31, PFA 50, IDU 1 μM, C0 1.425
[13] = C3: Ara-A 20, ACV 0.63, PFA 100, IDU 2 μM, C0 1.425
[14] = C4: Ara-A 40, ACV 1.25, PFA 200, IDU 4 μM, C0 1.425
[15] = C5: Ara-A 80, ACV 2.5, PFA 400, IDU 8 μM, C0 1.425
[16] = C6: Ara-A 160, ACV 5, PFA 800, IDU 16 μM, C0 1.425
[17] = cells disrupted with distilled water, C1: Ara-A 5, IDU 0.5 μM
[18] = cells disrupted with distilled water, C2: Ara-A 10, IDU 1 μM
[19] = cells disrupted with distilled water, C3: Ara-A 20, IDU 2 μM
[20] = cells disrupted with distilled water, C4: Ara-A 40, IDU 4 μM
[21] = cells disrupted with distilled water, C5: Ara-A 80, IDU 8 μM
[22] = cells disrupted with distilled water, C6: Ara-A 160, IDU 16 μM
[23] = supernatant, C1: Ara-A 5, IDU 0.5 μM
[24] = supernatant, C2: Ara-A 10, IDU 1 μM
[25] = supernatant, C3: Ara-A 20, IDU 2 μM
[26] = supernatant, C4: Ara-A 40, IDU 4 μM
[27] = supernatant, C5: Ara-A 80, IDU 8 μM
[28] = supernatant, C6: Ara-A 160, IDU 16 μM

Compound | adsorbance values [1, 5] | adsorbance values [1, 6] | adsorbance values [1, 7] | adsorbance values [1, 8] | adsorbance values [1, 9] | adsorbance values [1, 10] | absorbance (A) at 405 nm [2, 11] | absorbance (A) at 405 nm [2, 12] | absorbance (A) at 405 nm [2, 13] | absorbance (A) at 405 nm [2, 14] | absorbance (A) at 405 nm [2, 15] | absorbance (A) at 405 nm [2, 16] | sensitivity of the investigated HSV to the antiviral agent [2] | Absorbance values at 405 nm [3, 17] | Absorbance values at 405 nm [3, 18] | Absorbance values at 405 nm [3, 19] | Absorbance values at 405 nm [3, 20] | Absorbance values at 405 nm [3, 21] | Absorbance values at 405 nm [3, 22] | Absorbance values at 405 nm [3, 23] | further results
Nc1nc2c(ncn2COCCO)c(=O)[nH]1 [ACV, acyclovir] | 1.608 | 1.615 | 1.594 | 1.179 | 1.475 | 1.415 | 1.382 | 1.135 | 0.958 | 0.810 | 0.547 | 0.361 | high sensitivity | – | – | – | – | – | – | – | –
Nc1ncnc2c1ncn2C1OC(CO)C(O)C1O (centres unmarked) [Ara-A, adenosine-arabinoside] | 1.572 | 1.482 | 0.750 | 0.155 | 0.071 | 0.039 | 1.505 | 1.132 | 1.017 | 0.892 | 0.520 | 0.473 | – | 1.130 ± 0.052 | 1.073 ± 0.054 | 0.863 ± 0.030 | 0.513 ± 0.025 | 0.142 ± 0.009 | 0.119 | 0.384 ± 0.025 | 50% of inhibition of antigen formation in the cells ([3]; read from Fig. 2, disrupted cells): in clinically relevant concentrations; Absorbance values at 405 nm [3, 24]: 0.323 ± 0.010; Absorbance values at 405 nm [3, 25]: 0.276 ± 0.006; Absorbance values at 405 nm [3, 26]: 0.184 ± 0.009; Absorbance values at 405 nm [3, 27]: 0.099 ± 0.006; Absorbance values at 405 nm [3, 28]: 0.099
O=c1[nH]c(=O)n([C@H]2C[C@H](O)[C@@H](CO)O2)cc1I [IDU, iododeoxyuridine] | 1.207 | 1.165 | 0.951 | 0.739 | 0.706 | 0.502 | 1.011 | 0.847 | 0.671 | 0.536 | 0.344 | 0.298 | – | 1.130 ± 0.052 | 1.075 ± 0.054 | 0.863 ± 0.030 | 0.513 ± 0.025 | 0.142 ± 0.009 | 0.119 | 0.320 ± 0.037 | Absorbance values at 405 nm [3, 24]: 0.259 ± 0.005; Absorbance values at 405 nm [3, 25]: 0.201 ± 0.025; Absorbance values at 405 nm [3, 26]: 0.142 ± 0.019; Absorbance values at 405 nm [3, 27]: 0.091 ± 0.017; Absorbance values at 405 nm [3, 28]: 0.143; Serum concentrations used clinically ([4]; concentrations are measured in lachrymal fluid): 4—400^1 μM or IU/ml
O=C(O)P(=O)(O)O [PFA, phosphonoformic acid] | 1.487 | 1.502 | 0.656 | 0.216 | 0.092 | 0.083 | 1.437 | 1.391 | 1.346 | 1.321 | 0.893 | 0.310 | a lower one | – | – | – | – | – | – | – | Serum concentrations used clinically ([4]; serum, desired concentrations for the treatment of patients): 100 μM or IU/ml
